Measured values reported in patent publication US20240025862A1, “SUBSTITUTED N-PHENYLURACILS AND SALTS THEREOF, AND USE THEREOF AS HERBICIDAL ACTIVE SUBSTANCES” (Bayer Aktiengesellschaft, priority 2020, published 2024).
One block for each compound: values may come before it.

Experiments:
Type in all cases: in vivo
Oryza sativa (ORYSA) = assay: Post-emergence crop plant compatibility, greenhouse pot test (also comparative test C)
Experimental: (§1) Seeds of monocotyledonous and dicotyledonous weeds and crop plants were placed in sandy loam in plastic or wood-fiber pots, covered with soil and cultivated in a greenhouse under controlled growth conditions. 2 to 3 weeks after sowing, the test plants were treated at the one-leaf stage. The compounds of the invention, formulated in the form of wettable powders (WP) or as emulsion concentrates (EC), were then sprayed onto the green parts of the plants as aqueous suspension or emulsion with addition of 0.5% additive at a water application rate of 600 l/ha (converted). After the test plants had been kept in the greenhouse under optimum growth conditions for about 3 weeks, the activity of the preparations was rated visually in comparison to untreated controls. For example, 100% activity=the plants have died, 0% activity=like control plants.
(§2) The observed effects on selected crop plants are reported here in comparison to the untreated controls (values in %). The appendices “a”, “b” and “c” give differentiation by different dosage with otherwise the same crop plants tested.
(§3) C. Comparative Herbicidal Action and Crop Plant Compatibility of Two Inventive Compounds (I.7-1 and I.7-115) with a Compound of Similar Structure Known from the Literature (WO2002/098227, a-17 and EP1106607, 3-14) in Post-Emergence Treatment.

[1] = test system: Abutilon theophrasti (ABUTH); assay: Post-emergence herbicidal action, greenhouse pot test; settings: rated visually after about 3 weeks vs untreated controls, 100% = plants have died
Experimental: as §1
(§4) Tables A1 to A14 below show the effects of selected compounds of the general formula (I) according to Tables I.1 to I.33 on various harmful plants and at an application rate corresponding to 20 g/ha and less, which were obtained by the experimental method specified above. The appendices “a”, “b” and “c” give differentiation by different dosage with otherwise the same harmful plants tested.

[2] = test system: Polygonum convolvulus (POLCO); assay: as above
Experimental: as §1, §4

[3] = test system: Amaranthus retroflexus (AMARE); assay: as above; settings: rated visually after about 3 weeks vs untreated controls, 100% = plants have died
Experimental: as §1, §4

Veronica persica (VERPE) = assay: as above
Experimental: as §1, §4

Viola tricolor (VIOTR) = assay: as above
Experimental: as §1, §4

[4] = test system: Pharbitis purpurea (PHBPU); assay: as above
Experimental: as §1, §4

[5] = test system: Triticum aestivum (TRZAS); assay: Post-emergence crop plant compatibility, greenhouse pot test; settings: 1.25 g/ha, vs untreated controls
Experimental: as §1, §2

[6] = test system: Matricaria inodora (MATIN); assay: Post-emergence herbicidal action, greenhouse pot test (also comparative test C)
Experimental: as §1, §4, §3
(§5) Tables C1-C4 below show the effects of two inventive compounds (I.7-1 and I.7-115) together with a compound of similar structure known from the literature (a-17 in WO2002/098227, and 3-14 in EP1106607) in different crop plants at an application rate corresponding to 5 g/ha or less, which have been obtained by the aforementioned experimental procedure.

[7] = test system: Echinochloa crus-galli (ECHCG); assay: as above
Experimental: as §1, §4, §3, §5

[8] = test system: Alopecurus myosuroides (ALOMY); assay: as above; settings: for ALOMY (efficacy in %): comparative test C, application rate 5 g/ha
Experimental: as §1, §4, §3, §5

Setaria viridis (SETVI) = assay: as above
Experimental: as §1, §4, §3, §5

[9] = comparative test C, application rate 1.25 g/ha

Post-emergence action against ORYSA (crop plant compatibility) (Oryza sativa (ORYSA); 1.25 g/ha, vs untreated controls): 0% | Post-emergence action against TRZAS (crop plant compatibility) [5]: 20%
Structure (SMILES): Cn1c(C(F)(F)F)cc(=O)n(-c2cc(Oc3c(F)cccc3OCC(=O)OCC#N)c(Cl)cc2F)c1=O [I.19-176]
Post-emergence action at 1.25 g/ha against ABUTH in % ([1]; 1.25 g/ha): 100% | Post-emergence action at 5 g/ha against ABUTH in % ([1]; 5 g/ha): 100% | Post-emergence action at 20 g/ha against ABUTH in % ([1]; 20 g/ha): 100% | Post-emergence action against POLCO in % ([2]; dosage 1.25 g/ha): 100% | Post-emergence action against POLCO in % ([2]; dosage 5 g/ha): 100% | Post-emergence action against POLCO in % ([2]; dosage 20 g/ha): 100% | Post-emergence action at 1.25 g/ha against AMARE in % ([3]; 1.25 g/ha): 100% | Post-emergence action at 5 g/ha against AMARE in % ([3]; 5 g/ha): 100% | Post-emergence action at 20 g/ha against AMARE in % ([3]; 20 g/ha): 100% | Post-emergence action against VERPE (Veronica persica (VERPE); 1.25 g/ha): 100% | Post-emergence action against VERPE (Veronica persica (VERPE); 5 g/ha): 100% | Post-emergence action against VERPE (Veronica persica (VERPE); 20 g/ha): 100% | Post-emergence action against VIOTR (Viola tricolor (VIOTR); 1.25 g/ha): 80% | Post-emergence action against VIOTR (Viola tricolor (VIOTR); 5 g/ha): 100% | Post-emergence action against VIOTR (Viola tricolor (VIOTR); 20 g/ha): 100% | Post-emergence action against PHBPU in % ([4]; dosage 1.25 g/ha): 100% | Post-emergence action against PHBPU in % ([4]; dosage 5 g/ha): 100% | Post-emergence action against PHBPU in % ([4]; dosage 20 g/ha): 100% | Post-emergence action against MATIN in % ([6]; dosage 5 g/ha): 100% | Post-emergence action against MATIN in % ([6]; dosage 20 g/ha): 100% | Post-emergence action against ECHCG in % ([7]; dosage 5 g/ha): 100% | Post-emergence action against ECHCG in % ([7]; dosage 20 g/ha): 100% | Post-emergence action at 20 g/ha against ALOMY in % ([8]; 20 g/ha, rated visually after about 3 weeks vs untreated controls, 100% = plants have died): 80% | Post-emergence action against SETVI (Setaria viridis (SETVI); 20 g/ha): 100% | Post-emergence action against SETVI in % (Setaria viridis (SETVI); dosage 1.25 g/ha): 90% | Post-emergence action against SETVI in % (Setaria viridis (SETVI); dosage 5 g/ha): 100%

ORYSA (efficacy in %) (Oryza sativa (ORYSA); comparative test C, application rate 1.25 g/ha, crop plant compatibility): 20%
Structure (SMILES): CCCCOC(=O)COc1ccccc1Oc1cc(-n2c(=O)cc(C(F)(F)F)n(C)c2=O)c(F)cc1Cl [a-17, reference compound]
MATIN (efficacy in %) [6, 9]: 30% | ECHCG (efficacy in %) [7, 9]: 60% | SETVI (efficacy in %) (Setaria viridis (SETVI); [9]): 80%

Structure (SMILES): COCCOC(=O)COc1ccccc1Oc1cc(-n2c(=O)cc(C(F)(F)F)n(C)c2=O)c(F)cc1Cl [drawing 110]
ALOMY (efficacy in %) [8]: 80%

Structure (SMILES): Cn1c(C(F)(F)F)cc(=O)n(-c2cc(Oc3ccccc3OCC(=O)OC3COC3)c(Cl)cc2F)c1=O [drawing 111]
ALOMY (efficacy in %) [8]: 100%

Structure (SMILES): CCCCOC(=O)COc1ccccc1Oc1cc(-n2c(=O)cc(C(F)(F)F)n(C)c2=O)c(F)cc1Cl [drawing 112]
ALOMY (efficacy in %) [8]: 30%
